Where two headings read alike, the source gives them in different places. Numbered stars: 1 amine (or outer) side, 2 acyl side, 3 side chain; on linkers, the order of the positions; unused ones are H or OH. Bridge positions count the residues as written; N and C are the ends. Square brackets hold non-standard residues; d marks the D form. Side chains are listed from the residue outwards. Peptide text beside a SMILES is read from it. * marks the point of attachment. TtdsdLys(DOTA)NH2 = NC(=O)[C@@H](CCCCNC(=O)CN1CCN(CC(=O)O)CCN(CC(=O)O)CCN(CC(=O)O)CC1)NC(=O)CCC(=O)NCCCOCCOCCOCCCN*; X3 = O=C(O)CN1CCN(CC(=O)O)CCN(CC(=O)NCCCOCCOCCOCCCN*)CCN(CC(=O)O)CC1; X2 = O=C(O)CN1CCN(CC(=O)O)CCN([C@H](CCC(=O)*)C(=O)O)CCN(CC(=O)O)CC1; DOTA = O=C(O)CN1CCN(CC(=O)O)CCN(CC(=O)*)CCN(CC(=O)O)CC1; Phe(3-Cl) = N[C@@H](Cc1cccc(Cl)c1)C(=O)O; Phe(4-Cl) = N[C@@H](Cc1ccc(Cl)cc1)C(=O)O; Ethylenediamine = C(CN[*:2])N[*:1]; X1 = O=C(CC1CCN([*:1])CC1)[*:2]; Cit = NC(=O)NCCC[C@H](N)C(=O)O; Suc = O=C(CCC(=O)[*:2])[*:1]; Tle = CC(C)(C)[C@H](N)C(=O)O; 4Amb = NCc1ccc(C(=O)O)cc1; AEEA = NCCOCCOCC(=O)O; Aib = CC(C)(N)C(=O)O; CO = O=C([*:1])[*:2]; βAla = NCCC(=O)O; NHBu = CCCCN*
Tests used:
PC3-PIP tumor model = tested on: PC3-PIP tumor model; parameters: species or system mice; details: mouse, in vivo
Excerpt: Radioactively labeled compounds can be detected by imaging methods such as SPECT and PET. Furthermore, the data acquired by such techniques can be confirmed by direct measurement of radioactivity contained in the individual organs prepared from an animal injected with a radioactively labeled compound of the disclosure. Thus, the biodistribution (the measurement of radioactivity in individual organs) of a radioactively labeled compound can be determined and analyzed. […] All animal experiments were conducted in compliance with the German animal protection laws. Male swiss or NMRI nude mice (6-8 weeks old, Janvier Labs, France) were inoculated with 5×10^6 PC3-PIP cells in the right shoulder. For selected compounds an additional model was used, here male NMRI nude mice (6-8 weeks old, Janvier Labs, France) were inoculated with 5×10^6 or/1×10^7 C4-2 cells in the right shoulder. When tumors reached an appropriate size, the mice received ˜30 MBq ^111In-labeled compounds of the disclosure (diluted to 100 μL with PBS) administered intravenously via the tail vein. Images were obtained on a NanoSPECT/computed tomography system (Mediso Medical Imaging Systems, Budapest, Hungary) using exemplarily the following acquisition and reconstruction parameters (Table 10). [table] Imaging data were saved as DICOM files and analysed using VivoQuant™ software (Invicro, Boston, USA). In brief, regions of interest (ROIs) were drawn based on computed tomography images for the relevant organs and tissue regions such as heart (estimate of blood pool, bps), kidney, and tumor. The resulting numeric data expressed as a percentage of injected dose per gram of tissue (% ID/g) are presented in FIGS. 3(a)-3(ii) for the PC3-PIP model and FIGS. 4(a)-4(r) for the C4-2 model. Bars show mean % ID/g values of two to three animals per time point. Error bars indicate the value range (minimum and maximum values).

[1] = biological target: T1, Fc-fusion protein of human PSMA (hPSMA-Fc) (Homo sapiens, UniProt Q04609); assay: Surface plasmon resonance assay (Biacore T200, single cycle kinetic); assay type: binding; details: read-out: pKD CAT (converted)
T1 construct: purchased Acro Biosystems PSA-H5264
T1 sequence (Q04609 44-750 limits assumed): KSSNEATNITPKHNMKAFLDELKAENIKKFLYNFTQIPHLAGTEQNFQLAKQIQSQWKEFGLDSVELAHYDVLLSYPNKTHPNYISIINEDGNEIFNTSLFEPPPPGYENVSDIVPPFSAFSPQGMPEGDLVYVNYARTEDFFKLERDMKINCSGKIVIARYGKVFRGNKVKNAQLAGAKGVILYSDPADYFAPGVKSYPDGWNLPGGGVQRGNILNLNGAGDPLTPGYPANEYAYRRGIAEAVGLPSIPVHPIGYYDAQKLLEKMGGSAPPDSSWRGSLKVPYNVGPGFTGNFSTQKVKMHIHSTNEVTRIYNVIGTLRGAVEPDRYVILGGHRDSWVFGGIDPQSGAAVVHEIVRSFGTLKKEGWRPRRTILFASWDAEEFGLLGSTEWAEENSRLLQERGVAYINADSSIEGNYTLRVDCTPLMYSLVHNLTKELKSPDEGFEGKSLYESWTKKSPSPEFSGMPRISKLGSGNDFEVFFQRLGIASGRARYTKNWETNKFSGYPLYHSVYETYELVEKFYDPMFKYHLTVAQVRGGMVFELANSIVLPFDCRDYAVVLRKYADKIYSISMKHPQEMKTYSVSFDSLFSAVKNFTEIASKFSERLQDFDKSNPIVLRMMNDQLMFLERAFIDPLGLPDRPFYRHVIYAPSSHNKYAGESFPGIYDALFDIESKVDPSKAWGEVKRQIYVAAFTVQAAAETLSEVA
How it was run: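 hPSMA-Fc was captured (~1000 RU) on an Fc-binding-peptide CM5 chip, and compounds were run in single cycle kinetic mode at 25° C in HBST with 0.1% DMSO. Double-blank-corrected sensorgrams were fitted to a 1:1 Langmuir model to give KD, reported as pKD.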

[2] = biological target: T2, PSMA-expressing C4-2 cells (Homo sapiens, UniProt Q04609); assay: FACS binding assay (competition with 50 nM PSM-0183); details: read-out: pIC50 [C4-2] CAT (converted)
T2 construct: PSMA-expressing C4-2 cells (ATCC, Cat. No. CRL-3314) were cultured in RPMI-1640; host or cells: C4-2 cells
T2 sequence (Q04609 whole entry): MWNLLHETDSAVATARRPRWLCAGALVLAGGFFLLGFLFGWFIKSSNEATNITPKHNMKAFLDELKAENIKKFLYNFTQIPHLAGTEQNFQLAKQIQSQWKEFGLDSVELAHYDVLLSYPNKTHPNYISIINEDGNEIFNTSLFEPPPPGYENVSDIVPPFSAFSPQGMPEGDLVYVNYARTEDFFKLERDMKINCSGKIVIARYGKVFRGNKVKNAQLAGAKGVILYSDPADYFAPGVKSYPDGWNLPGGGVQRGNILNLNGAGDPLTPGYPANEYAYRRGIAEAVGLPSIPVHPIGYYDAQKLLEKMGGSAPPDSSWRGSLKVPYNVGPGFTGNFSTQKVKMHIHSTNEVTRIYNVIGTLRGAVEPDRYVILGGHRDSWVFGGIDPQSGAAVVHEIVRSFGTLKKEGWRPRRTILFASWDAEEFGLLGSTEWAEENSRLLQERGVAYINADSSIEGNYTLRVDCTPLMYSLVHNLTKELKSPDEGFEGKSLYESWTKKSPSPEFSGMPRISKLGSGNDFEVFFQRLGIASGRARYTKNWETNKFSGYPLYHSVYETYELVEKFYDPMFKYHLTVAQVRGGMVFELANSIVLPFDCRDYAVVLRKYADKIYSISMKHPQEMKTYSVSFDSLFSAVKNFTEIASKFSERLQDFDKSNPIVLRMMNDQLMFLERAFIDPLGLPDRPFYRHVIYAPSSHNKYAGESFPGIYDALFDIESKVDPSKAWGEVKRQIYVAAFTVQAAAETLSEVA
How it was run: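 C4-2 cells were incubated 1 h at 4 °C with 50 nM AF488-labelled peptide PSM-0183 plus increasing test compound concentrations, then washed twice in ice-cold buffer. Median fluorescence in the AF488 channel was read by flow cytometry. IC50/pIC50 was derived by 4PL fitting of MFI versus concentration.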

[3] = pKD category for PSMA SPR activity assay, hPSMA-Fc, 25° C.
[4] = pIC50 category of FACS binding, C4-2 cells
[5] = PSMA SPR assay, hPSMA-Fc, 25° C., pKD category
[6] = FACS binding, PSMA-expressing C4-2 cells, pIC50 category
[7] = SPR, hPSMA-Fc, single cycle kinetic, 25° C., category
[8] = FACS binding, C4-2 cells, competition with 50 nM PSM-0183, category

SMILES	AUC ratio [T/K] (PC3-PIP tumor model)	Tumor AUC (PC3-PIP tumor model)	Kd [1, 3]	IC50 [2, 4]	Kd [1, 5]	IC50 [2, 6]	Kd [1, 7]	IC50 [2, 8]	Kd ([1]; PSMA SPR assay, category)	IC50 ([2]; FACS binding, C4-2 cells, category)
CC(C)(NC(=O)c1ccc(CNC(=O)CN2CCN(CC(=O)O)CCN(CC(=O)O)CCN(CC(=O)O)CC2)cc1)C(=O)N[C@@H](Cc1ccc(Cl)cc1)C(=O)N[C@H]1CSSC[C@@H](C(=O)N[C@H](C(=O)NCCN)C(C)(C)C)NC(=O)[C@H](CC(N)=O)NC(=O)C(C)(C)NC(=O)[C@H](CCCNC(=N)N)NC(=O)[C@H](CCCCN)NC1=O [PSM-0273, DOTA-Pamb-Aib-Pcf-[Cys-Lys-Arg-Aib-Asn-Cys]-Tle-en] ({DOTA-4Amb}-[Aib][Phe(4-Cl)]CKR[Aib]NC[Tle]-Ethylenediamine; disulfide 3-8)	0.21	110 % ID/g*h	–	–	< 12.6 nM	< 200 nM	–	–	–	–
C[C@@H]1NC(=O)[C@H](CCCNC(=N)N)NC(=O)[C@H](CCCCN)NC(=O)[C@@H](NC(=O)[C@H](Cc2ccccc2)NC(=O)C(C)(C)NC(=O)[C@@H](NC(=O)CCC(=O)NCCCOCCOCCOCCCNC(=O)CN2CCN(CC(=O)O)CCN(CC(=O)O)CCN(CC(=O)O)CC2)[C@@H](C)O)CSSC[C@@H](C(=O)N[C@H](C(=O)N[C@H](C(N)=O)[C@@H](C)O)C(C)(C)C)NC(=O)[C@H](CC(N)=O)NC1=O [PSM-0237, DOTA-Ttds-Thr-Aib-Phe-[Cys-Lys-Arg-Ala-Asn-Cys]-Tle-Thr-NH2] ({X3-Suc}-T[Aib]FCKRANC[Tle]T-NH2; disulfide 4-9)	0.44	180 % ID/g*h	–	–	–	–	< 12.6 nM	< 200 nM	–	–
CC(=O)N[C@H](C(=O)NC(C)(C)C(=O)N[C@@H](Cc1ccc(Cl)cc1)C(=O)N[C@H]1CSSC[C@@H](C(=O)N[C@H](C(=O)NCCNC(=O)CN2CCN(CC(=O)O)CCN(CC(=O)O)CCN(CC(=O)O)CC2)C(C)(C)C)NC(=O)[C@H](CC(N)=O)NC(=O)C(C)(C)NC(=O)[C@H](CCCNC(=N)N)NC(=O)[C@H](CCCCN)NC1=O)[C@@H](C)O [PSM-0269, Ac-Thr-Aib-Pcf-[Cys-Lys-Arg-Aib-Asn-Cys]-Tle-en-DOTA] (Ac-T[Aib][Phe(4-Cl)]CKR[Aib]NC[Tle]-{Ethylenediamine-DOTA}; disulfide 4-9)	0.87	150 % ID/g*h	–	–	< 12.6 nM	< 200 nM	–	–	–	–
CC(=O)N[C@H](C(=O)NC(C)(C)C(=O)N[C@@H](Cc1cccc(Cl)c1)C(=O)N[C@H]1CSSC[C@@H](C(=O)N[C@H](C(=O)N[C@H](C(N)=O)[C@@H](C)O)C(C)(C)C)NC(=O)[C@H](CC(N)=O)NC(=O)[C@H](CCCCNC(=O)COCCOCCNC(=O)CN2CCN(CC(=O)O)CCN(CC(=O)O)CCN(CC(=O)O)CC2)NC(=O)[C@H](CCCNC(=N)N)NC(=O)[C@H](CCCCN)NC1=O)[C@@H](C)O [PSM-0243, Ac-Thr-Aib-Mcf-[Cys-Lys-Arg-Lys(DOTA-O2Oc)-Asn-Cys]-Tle-Thr-NH2] (Ac-T[Aib][Phe(3-Cl)]CKRK([AEEA-DOTA])NC[Tle]T-NH2; disulfide 4-9)	0.53	130 % ID/g*h	–	–	–	–	< 12.6 nM	< 200 nM	–	–
CC(=O)N[C@H](C(=O)NC(C)(C)C(=O)N[C@@H](Cc1ccccc1)C(=O)N[C@H]1CSSC[C@@H](C(=O)N[C@H](C(=O)N[C@H](C(=O)NCCCOCCOCCOCCCNC(=O)CCC(=O)N[C@H](CCCCNC(=O)CN2CCN(CC(=O)O)CCN(CC(=O)O)CCN(CC(=O)O)CC2)C(N)=O)[C@@H](C)O)C(C)(C)C)NC(=O)[C@H](CC(N)=O)NC(=O)C(C)(C)NC(=O)[C@H](CCCNC(=N)N)NC(=O)[C@H](CCCCN)NC1=O)[C@@H](C)O [PSM-0285, Ac-Thr-Aib-Phe-[Cys-Lys-Arg-Aib-Asn-Cys]-Tle-Thr-Ttds-lys(DOTA)-NH2] (Ac-T[Aib]FCKR[Aib]NC[Tle]T-{TtdsdLys(DOTA)NH2}; disulfide 4-9)	0.91	210 % ID/g*h	–	–	< 12.6 nM	< 200 nM	–	–	–	–

Other lines, results leading:

AUC ratio [T/K] (PC3-PIP tumor model)	Tumor AUC (PC3-PIP tumor model)	Kd [1, 3]	IC50 [2, 4]	Kd [1, 5]	IC50 [2, 6]	Kd [1, 7]	IC50 [2, 8]	Kd ([1]; PSMA SPR assay, category)	IC50 ([2]; FACS binding, C4-2 cells, category)	SMILES
0.62	120 % ID/g*h	< 12.6 nM	< 200 nM	–	–	–	–	–	–	CCCCNC(=O)N[C@H](C(=O)NC(C)(C)C(=O)N[C@@H](Cc1ccc(Cl)cc1)C(=O)N[C@H]1CSSC[C@@H](C(=O)N[C@H](C(=O)N[C@H](C(=O)N2CCC(CC(=O)N[C@H](CCCCNC(=O)CN3CCN(CC(=O)O)CCN(CC(=O)O)CCN(CC(=O)O)CC3)C(N)=O)CC2)[C@@H](C)O)C(C)(C)C)NC(=O)[C@H](CC(N)=O)NC(=O)C(C)(C)NC(=O)[C@H](CCCNC(=N)N)NC(=O)[C@H](CCCCN)NC1=O)[C@@H](C)O [PSM-0371, nBuCAyl-Thr-Aib-Pcf-[Cys-Lys-Arg-Aib-Asn-Cys]-Tle-Thr-Cmp-lys(DOTA)-NH2] ({NHBu-CO}-T[Aib][Phe(4-Cl)]CKR[Aib]NC[Tle]T[X1][dK](DOTA)-NH2; disulfide 4-9)
1.6	140 % ID/g*h	< 12.6 nM	< 200 nM	–	–	–	–	–	–	C[C@@H](O)[C@H](NC(=O)[C@@H](NC(=O)[C@@H]1CSSC[C@H](NC(=O)[C@H](Cc2ccc(Cl)cc2)NC(=O)C(C)(C)NC(=O)[C@@H](NC(=O)CC2CCN(C(=O)CN3CCN(CC(=O)O)CCN(CC(=O)O)CCN(CC(=O)O)CC3)CC2)[C@@H](C)O)C(=O)N[C@@H](CCCCN)C(=O)N[C@@H](CCCNC(N)=O)C(=O)NC(C)(C)C(=O)N[C@@H](CC(N)=O)C(=O)N1)C(C)(C)C)C(N)=O [PSM-0365, DOTA-Cmp-Thr-Aib-Pcf-[Cys-Lys-Cit-Aib-Asn-Cys]-Tle-Thr-NH2] ({DOTA}-[X1]T[Aib][Phe(4-Cl)]CK[Cit][Aib]NC[Tle]T-NH2; disulfide 5-10)
1.1	160 % ID/g*h	–	–	–	–	–	–	< 12.6 nM	< 200 nM	C[C@@H](O)[C@H](NC(=O)[C@@H](NC(=O)[C@@H]1CSSC[C@H](NC(=O)[C@H](Cc2ccc(Cl)cc2)NC(=O)C(C)(C)NC(=O)[C@@H](NC(=O)CN2CCN(CC(=O)O)CCN(CC(=O)O)CCN(CC(=O)O)CC2)[C@@H](C)O)C(=O)N[C@@H](CCCCN)C(=O)N[C@@H](CCCNC(=N)N)C(=O)NC(C)(C)C(=O)N[C@@H](CC(N)=O)C(=O)N1)C(C)(C)C)C(N)=O [PSM-0573, DOTA-Thr-Aib-Pcf-[Cys-Lys-Arg-Aib-Asn-Cys]-Tle-Thr-NH2] ({DOTA}-T[Aib][Phe(4-Cl)]CKR[Aib]NC[Tle]T-NH2; disulfide 4-9)
1.4	220 % ID/g*h	< 12.6 nM	< 200 nM	–	–	–	–	–	–	C[C@@H](O)[C@H](NC(=O)CC1CCN(C(=O)CN2CCN(CC(=O)O)CCN(CC(=O)O)CCN(CC(=O)O)CC2)CC1)C(=O)NC(C)(C)C(=O)N[C@@H](Cc1ccccc1)C(=O)N[C@H]1CSSC[C@@H](C(=O)N[C@H](C(=O)NCCC(N)=O)C(C)(C)C)NC(=O)[C@H](CC(N)=O)NC(=O)C(C)(C)NC(=O)[C@H](CCCNC(=N)N)NC(=O)[C@H](CCCCN)NC1=O [PSM-0449, DOTA-Cmp-Thr-Aib-Pho-[Cys-Lys-Arg-Aib-Asn-Cys]-Tle-Bal-NH2] ({DOTA}-[X1]T[Aib]FCKR[Aib]NC[Tle][βAla]-NH2; disulfide 5-10)
0.45	83 % ID/g*h	–	–	< 12.6 nM	< 200 nM	–	–	–	–	CC(=O)N[C@H](C(=O)NC(C)(C)C(=O)N[C@@H](Cc1cccc(Cl)c1)C(=O)N[C@H]1CSSC[C@@H](C(=O)N[C@H](C(=O)N[C@H](C(N)=O)[C@@H](C)O)C(C)(C)C)NC(=O)[C@H](CC(N)=O)NC(=O)[C@H](CCCCNC(=O)COCCOCCNC(=O)CC[C@H](C(=O)O)N2CCN(CC(=O)O)CCN(CC(=O)O)CCN(CC(=O)O)CC2)NC(=O)[C@H](CCCNC(=N)N)NC(=O)[C@H](CCCCN)NC1=O)[C@@H](C)O [PSM-0301, Ac-Thr-Aib-Mcf-[Cys-Lys-Arg-Lys (DOTAGA-020c)-Asn-Cys]-Tle-Thr-NH2] (Ac-T[Aib][Phe(3-Cl)]CKRK([AEEA-X2])NC[Tle]T-NH2; disulfide 4-9)

From patent publication US20260083865A1, “PROSTATE SPECIFIC MEMBRANE ANTIGEN (PSMA) LIGANDS AND USE THEREOF” (priority 2022, published 2026)
